Measurements from patent US10150737B2, “Compounds for controlling arthropods” (priority 2013, dated 2018).
Each block holds one compound with its values, some of them ahead of it.

Assays:
Lucilia cuprina = Lucilia cuprina test; type: in vivo; settings: application rate 100 ppm; L1 larvae; after 2 days
Procedure, shortened: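 About 20 L1 larvae placed on minced horsemeat treated with compound, formulated in DMSO and diluted with water to test concentration. Kill in % scored after 2 days (100% = all larvae dead, 0% = none).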

Boophilus microplus = Boophilus microplus - injection test; type: in vivo; settings: application rate 20 μg/animal, injection into engorged adult female ticks, after 7 days
Procedure, shortened: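 Active ingredient in DMSO, 1 μl injected into the abdomen of 5 engorged adult female ticks, then held in a climate-controlled room. Efficacy scored after 7 days from laying of fertile eggs, with non-fertile-looking eggs kept about 42 days for larval hatch; 100% means no fertile eggs.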

Ctenocephalides felis [1] = test: Ctenocephalides felis - oral test; type: in vivo; settings: application rate 100 ppm in citrated cattle blood; after 2 days
Procedure, shortened: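 Compound in DMSO diluted into citrated cattle blood, fed through a parafilm membrane to about 20 unfed adult cat fleas. Kill in % scored after 2 days (100% = all dead).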

Tetranychus urticae = Tetranychus urticae - spray test, OP-resistant; type: in vivo; settings: bean leaf discs, after 6 days
Procedure, shortened: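 Compound dissolved in acetone/DMF, diluted with water containing 1000 ppm alkylaryl polyglycol ether emulsifier to test concentrations. Bean leaf discs infested with all stages of spider mites were sprayed; % kill determined after 6 days (100% = all mites dead, 0% = none).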

Spodoptera frugiperda = Spodoptera frugiperda - spray test; type: in vivo; settings: caterpillars on maize leaf discs, after 7 days
Procedure, shortened: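 Maize leaf discs sprayed with compound formulated in acetone/DMF and diluted in water containing 1000 ppm alkylaryl polyglycol ether emulsifier, then infested with armyworm caterpillars after drying. Efficacy scored after 7 days as % caterpillars killed (100% all, 0% none).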

[2] = logP determination by HPLC on a reversed-phase column (C18); type: physicochemical; settings: for logP^a): HPLC-MS method a); for log P: HPLC-MS
Phaedon cochleariae = Phaedon cochleariae - spray test; type: in vivo; settings: larvae on Chinese cabbage leaf discs, after 7 days
Procedure, shortened: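 Chinese cabbage leaf discs sprayed with compound formulated in acetone/DMF and water containing 1000 ppm emulsifier; once dry, infested with mustard beetle larvae. Efficacy (% larvae killed) scored after 7 days.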

Rhipicephalus sanguineus = Rhipicephalus sanguineus - in vitro contact tests with adult brown dog ticks; type: in vivo; settings: after 48 h, ticks dead or moribund
Method: (§1) For the coating of the test tubes, 9 mg of active ingredient are first dissolved in 1 ml of acetone p.a. and then diluted to the desired concentration with acetone p.a. 250 μl of the solution are distributed homogeneously on the inner walls and base of a 25 ml test tube by turning and rocking on an orbital shaker (rocking rotation at 30 rpm for 2 h). With 900 ppm active ingredient solution and internal surface 44.7 cm^2, given homogeneous distribution, an area-based dose of 5 μg/cm^2 is achieved.
After the solvent has evaporated off, the tubes are populated with 5-10 adult dog ticks (Rhipicephalus sanguineus), sealed with a perforated plastic lid and incubated in a horizontal position in the dark at room temperature and ambient humidity. After 48 h, efficacy is determined. To this end, the ticks are knocked to the floor of the tube and incubated on a hotplate at 45-50° C. for not more than 5 min. Ticks which remain motionless on the floor or move in such an uncoordinated manner that they are unable to deliberately avoid the heat by climbing upwards are considered to be dead or moribund.
An efficacy of 100% means that all the ticks were dead or moribund. 0% efficacy means that none of the ticks had been harmed.

Musca domestica = Musca domestica test; type: in vivo; settings: application rate 100 ppm; adult houseflies; after 2 days
Procedure, shortened: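 Compound in DMSO, diluted with water, applied to a sugar-solution sponge; vessels hold 10 adult houseflies. Percent mortality scored after 2 days.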

Ctenocephalides felis [3] = test: Ctenocephalides felis - in vitro contact tests with adult cat fleas; type: in vivo; settings: application rate 5 μg/cm2 (=500 g/ha); after 48 h; fleas dead or moribund
Method: as §1, with “surface area” for “surface”
After the solvent has evaporated off, the tubes are populated with 5-10 adult cat fleas (Ctenocephalides felis), sealed with a perforated plastic lid and incubated in a horizontal position at room temperature and ambient humidity. After 48 h, efficacy is determined. To this end, the test tubes are stood upright and the fleas are knocked to the base of the tube. Fleas which remain motionless at the base or move in an uncoordinated manner are considered to be dead or moribund.
100% efficacy means that all the fleas were dead or moribund. 0% efficacy means that no fleas were harmed.

Myzus persicae = Myzus persicae - spray test; type: in vivo; settings: Chinese cabbage leaf discs, after 6 days
Method: Solvent: 78 parts by weight of acetone and 1.5 parts by weight of dimethylformamide
Emulsifier: alkylaryl polyglycol ether
To produce an appropriate active ingredient formulation, 1 part by weight of active ingredient is dissolved using the specified parts by weight of solvent and made up with water containing an emulsifier concentration of 1000 ppm until the desired concentration is attained. To produce further test concentrations, the preparation is diluted with emulsifier-containing water.
Discs of Chinese cabbage leaves (Brassica pekinensis) infested by all stages of the green peach aphid (Myzus persicae) are sprayed with an active ingredient formulation of the desired concentration.
After 6 days, efficacy in % is determined. 100% means that all the aphids have been killed; 0% means that none of the aphids have been killed.

[4] = test system: Boophilus microplus Parkhurst strain, SP-resistant; test: Boophilus microplus - dip test; type: in vivo; settings: application rate 100 ppm; dip of engorged adult female ticks; after 7 days
Method: Test animals: cattle ticks (Boophilus microplus) Parkhurst strain, SP-resistant
Solvent: dimethyl sulphoxide
10 mg of active ingredient are dissolved in 0.5 ml of dimethyl sulphoxide. For the purpose of producing a suitable formulation, the active ingredient solution is diluted with water to the concentration desired in each case.
This active ingredient formulation is pipetted into tubes. 8-10 adult engorged female cattle ticks (Boophilus microplus) are transferred into a further tube with holes. The tube is immersed into the active ingredient formulation, and all the ticks are completely wetted. After the liquid has run out, the ticks are transferred on filter discs into plastic dishes and stored in a climate-controlled room.
Efficacy is assessed after 7 days by laying of fertile eggs. Eggs which are not visibly fertile are stored in a climate-controlled cabinet until the larvae hatch after about 42 days. An efficacy of 100% means that none of the ticks has laid any fertile eggs; 0% means that all the eggs are fertile.

[5] = reversed-phase column (C18), Table I-T3

SMILES: CCc1cc(C(F)(C(F)(F)F)C(F)(F)F)cc(C)c1-n1cc(-c2ccc(Cl)c(C(=O)NC3CSC3)c2)cn1 [I-T3-47]
efficacy (kill) (Lucilia cuprina): 100% | efficacy (laying of fertile eggs) (Boophilus microplus): 100% | efficacy (kill) (Ctenocephalides felis [1]): 100% | efficacy (Tetranychus urticae; application rate 500 g/ha): 100% | efficacy (Spodoptera frugiperda; application rate 500 g/ha): 100% | logP^a) [2]: 5.0 | logP^a) [2, 5]: 5.0 | efficacy (Phaedon cochleariae; application rate 500 g/ha): 100% | efficacy (Rhipicephalus sanguineus; application rate 5 μg/cm2): 100%

SMILES: O=C(NC1CC1)c1cc(-c2cnn(-c3ccc(C(F)(C(F)(F)F)C(F)(F)F)cc3C(F)(F)F)c2)ccc1Cl [I-T3-52]
efficacy (kill) (Lucilia cuprina): 100% | efficacy (laying of fertile eggs) (Boophilus microplus): 100% | efficacy (kill) (Ctenocephalides felis [1]): 100% | efficacy (Tetranychus urticae; application rate 100 g/ha): 90% | efficacy (Spodoptera frugiperda; application rate 100 g/ha): 100% | logP^a) [2]: 4.3 | logP^a) [2, 5]: 4.3 | efficacy (Phaedon cochleariae; application rate 100 g/ha): 100% | efficacy (kill) (Musca domestica): 100% | efficacy (Rhipicephalus sanguineus; application rate 5 μg/cm2): 100%

SMILES: O=C(NC1CC1)c1cc(-c2cnn(-c3ccc(OC(F)(F)F)cc3Cl)c2)ccc1Cl [I-T3-90]
efficacy (kill) (Lucilia cuprina): 100% | efficacy (laying of fertile eggs) (Boophilus microplus): 100% | efficacy (kill) (Ctenocephalides felis [1]): 100% | efficacy (Tetranychus urticae; application rate 500 g/ha): 90% | efficacy (Spodoptera frugiperda; application rate 500 g/ha): 100% | logP^a) [2]: 3.6 | log P [2, 5]: 3.6 | efficacy (Phaedon cochleariae; application rate 500 g/ha): 100% | efficacy (kill) (Musca domestica): 90% | efficacy (Rhipicephalus sanguineus; application rate 5 μg/cm2): 100%

SMILES: CN(C(=O)c1cc(-c2cnn(-c3c(Cl)cc(C(F)(F)F)cc3Cl)c2)cnc1Cl)C1CC1 [I-T3-99]
efficacy (kill) (Lucilia cuprina): 100% | efficacy (laying of fertile eggs) (Boophilus microplus): 100% | efficacy (kill) (Ctenocephalides felis [1]): 100% | efficacy (Tetranychus urticae; application rate 100 g/ha): 100% | efficacy (Spodoptera frugiperda; application rate 100 g/ha): 100% | efficacy (Ctenocephalides felis [3]): 100% | logP^a) [2]: 3.5 | log P [2, 5]: 3.5 | efficacy (Phaedon cochleariae; application rate 100 g/ha): 100% | efficacy (kill) (Musca domestica): 90% | efficacy (Myzus persicae; application rate 100 g/ha): 100% | efficacy (laying of fertile eggs) [4]: 90%

SMILES: CN(C(=O)c1cc(-c2cnn(-c3c(Cl)cc(C(F)(C(F)(F)F)C(F)(F)F)cc3C(F)(F)F)c2)cnc1Cl)C1CC1 [I-T3-113]
efficacy (kill) (Lucilia cuprina): 100% | efficacy (laying of fertile eggs) (Boophilus microplus): 100% | efficacy (kill) (Ctenocephalides felis [1]): 100% | efficacy (Tetranychus urticae; application rate 500 g/ha): 100% | efficacy (Spodoptera frugiperda; application rate 500 g/ha): 100% | logP^a) ([2]; reversed-phase column (C18)): 4.0 | log P [2, 5]: 4.0 | efficacy (Phaedon cochleariae; application rate 500 g/ha): 100% | efficacy (kill) (Musca domestica): 100% | efficacy (Myzus persicae; application rate 100 g/ha): 100% | efficacy (laying of fertile eggs) [4]: 100%

SMILES: Cc1cc(C(F)(C(F)(F)F)C(F)(F)F)cc(C)c1-n1cc(-c2cnc(C)c(C(=O)N(C)C3(C#N)CC3)c2)cn1 [I-T3-115]
efficacy (kill) (Lucilia cuprina): 100% | efficacy (laying of fertile eggs) (Boophilus microplus): 100% | efficacy (kill) (Ctenocephalides felis [1]): 100% | efficacy (Tetranychus urticae; application rate 500 g/ha): 100% | efficacy (Spodoptera frugiperda; application rate 500 g/ha): 100% | efficacy (Ctenocephalides felis [3]): 100% | logP^a) ([2]; reversed-phase column (C18)): 3.8 | log P [2, 5]: 3.8 | efficacy (Phaedon cochleariae; application rate 500 g/ha): 100% | efficacy (kill) (Musca domestica): 100% | efficacy (Myzus persicae; application rate 100 g/ha): 100% | efficacy (laying of fertile eggs) [4]: 100%

SMILES: Cc1cc(C(F)(C(F)(F)F)C(F)(F)F)cc(C(F)(F)F)c1-n1cc(-c2cnc(C)c(C(=O)N(C)C3CC3)c2)cn1 [I-T3-118]
efficacy (kill) (Lucilia cuprina): 100% | efficacy (laying of fertile eggs) (Boophilus microplus): 100% | efficacy (kill) (Ctenocephalides felis [1]): 100% | efficacy (Tetranychus urticae; application rate 500 g/ha): 90% | efficacy (Spodoptera frugiperda; application rate 500 g/ha): 100% | efficacy (Ctenocephalides felis [3]): 100% | logP^a) ([2]; reversed-phase column (C18)): 3.8 | log P [2, 5]: 3.8 | efficacy (Phaedon cochleariae; application rate 500 g/ha): 100% | efficacy (kill) (Musca domestica): 100% | efficacy (Myzus persicae; application rate 100 g/ha): 100% | efficacy (laying of fertile eggs) [4]: 100%

SMILES: Cc1cc(C(F)(C(F)(F)F)C(F)(F)F)cc(C)c1-n1cc(-c2cnc(C)c(C(=O)N(C)C3CC3)c2)cn1 [I-T3-120]
efficacy (kill) (Lucilia cuprina): 100% | efficacy (laying of fertile eggs) (Boophilus microplus): 100% | efficacy (kill) (Ctenocephalides felis [1]): 100% | efficacy (Tetranychus urticae; application rate 500 g/ha): 100% | efficacy (Spodoptera frugiperda; application rate 500 g/ha): 100% | efficacy (Ctenocephalides felis [3]): 100% | logP^a) ([2]; reversed-phase column (C18)): 3.6 | log P [2, 5]: 3.6 | efficacy (Phaedon cochleariae; application rate 500 g/ha): 100% | efficacy (kill) (Musca domestica): 100% | efficacy (Myzus persicae; application rate 100 g/ha): 100% | efficacy (Myzus persicae; application rate 500 g/ha): 90% | efficacy (laying of fertile eggs) [4]: 100%

SMILES: Cc1ncc(-c2cnn(-c3c(Cl)cc(C(F)(C(F)(F)F)C(F)(F)F)cc3C(F)(F)F)c2)cc1C(=O)N(C)C1CC1 [I-T3-130]
efficacy (kill) (Lucilia cuprina): 100% | efficacy (laying of fertile eggs) (Boophilus microplus): 100% | efficacy (kill) (Ctenocephalides felis [1]): 100% | efficacy (Tetranychus urticae; application rate 100 g/ha): 100% | efficacy (Spodoptera frugiperda; application rate 100 g/ha): 100% | efficacy (Ctenocephalides felis [3]): 100% | logP^a) ([2]; reversed-phase column (C18)): 3.8 | log P [2, 5]: 3.8 | efficacy (Phaedon cochleariae; application rate 100 g/ha): 100% | efficacy (kill) (Musca domestica): 100% | efficacy (Myzus persicae; application rate 100 g/ha): 100% | efficacy (laying of fertile eggs) [4]: 100%

SMILES: COc1ncc(-c2cnn(-c3c(C)cc(C(F)(C(F)(F)F)C(F)(F)F)cc3C)c2)cc1C(=O)NC1(C#N)CC1 [I-T3-141]
efficacy (kill) (Lucilia cuprina): 100% | efficacy (laying of fertile eggs) (Boophilus microplus): 100% | efficacy (kill) (Ctenocephalides felis [1]): 100% | efficacy (Spodoptera frugiperda; application rate 100 g/ha): 100% | logP^a) ([2]; reversed-phase column (C18)): 4.4 | log P [2, 5]: 4.4 | efficacy (Phaedon cochleariae; application rate 100 g/ha): 100% | efficacy (kill) (Musca domestica): 100% | efficacy (Rhipicephalus sanguineus; application rate 1 μg/cm2): 100%

logP ([2]; HPLC, C18 reversed phase, acetonitrile/water with formic acid, EEC Directive 79/831 Annex V.A8): 4.7
SMILES: Cc1cc(C(F)(C(F)(F)F)C(F)(F)F)cc(C)c1-c1cnn(-c2ccc(Cl)c(C(=O)NC3CC3)c2)c1 [I-T4-1, N-cyclopropyl-2-chloro-5-[4-[2,6-dimethyl-4-[1,2,2,2-tetrafluoro-1-(trifluoromethyl)ethyl]phenyl]pyrazol-1-yl]benzamide]
pest or weed control at 0.02 mg (Boophilus microplus; Rhipicephalus microplus, 168 h, read-out: efficacy (laying of fertile eggs)): 100% | efficacy (Rhipicephalus sanguineus; application rate 5 μg/cm2): 100%
